Publication PMC11845761, “Intestinal human carboxylesterase 2 (CES2) expression rescues drug metabolism and most metabolic syndrome phenotypes in global Ces2 cluster knockout mice” (Acta Pharmacologica Sinica, 2024)
Marks after values point to notes of the source that are not given here.

Legend:
[1] = Plasma pharmacokinetics of vinorelbine and deacetylvinorelbine after oral vinorelbine in CES2-modified mice; assay type: in vivo, mouse; conditions: oral vinorelbine 10 mg/kg; for AUC0-4h / AUC0-4h ratio (× 10^−3) (deacetylvinorelbine/vinorelbine) / Cmax / Tmax: plasma
Procedure: (§1) For capecitabine 2-h experiments, 6–7 female mice received oral capecitabine (500 mg/kg, 10 μL/g), and tail vein blood samples were collected at 0.125, 0.25, 0.5 and 1 h after drug administration. For the vinorelbine 4-h experiment, 6-7 male mice received vinorelbine intravenously (10 mg/kg, 5 μL/g) or orally (10 mg/kg, 10 μL/g) using a blunt-ended needle. Tail vein blood samples were collected at 0.125, 0.25, 0.5, 1 and 2 h after drug administration. […] At the last time point in each experiment (2 or 4 h), mice were anesthetized with 5% isoflurane and blood was collected by cardiac puncture. […] Plasma was isolated from the blood by centrifugation at 9000 × g for 6 min at 4 °C, and the plasma fraction was collected and stored at −30 °C until analysis.
(§2) Concentrations of capecitabine (and its metabolites) and vinorelbine (and its metabolite) in mouse plasma samples and organ homogenates were determined using two independent validated high-performance liquid chromatography-tandem mass spectrometry assays.
(§3) Pharmacokinetic parameters were calculated by non-compartmental methods using the PK solver software. […] Differences were considered statistically significant when P < 0.05. All data are presented as mean ± SD.

[2] = parameters: method as in PMID 11822766; conditions: 24 patients; oral vinorelbine 80 mg/m^2; cited from earlier work
[3] = Tissue concentrations of vinorelbine and deacetylvinorelbine 4 h after i.v. vinorelbine in CES2-modified mice; assay type: in vivo, mouse; conditions: i.v. vinorelbine 10 mg/kg
Procedure: as §1, §2, §3

In the case of `CCC1=C[C@@H]2CN(C1)Cc1c([nH]c3ccccc13)[C@@](C(=O)OC)(c1cc3c(cc1OC)N(C)[C@H]1[C@@](O)(C(=O)OC)[C@H](O)[C@]4(CC)C=CCN5CC[C@]31[C@@H]54)C2` [Deacetylvinorelbine, 4’-O-deacetylvinorelbine], the AUC0-4h ([1]; male Ces2^–/– mice) is reported as 1.0 ± 0.4 ng·h/mL, the “AUC0-4h ratio (× 10^−3) (deacetylvinorelbine/vinorelbine)” value ([1]; male Ces2^–/– mice) is reported as 2.0 ± 0.4 × 10^−3 and the Cmax ([1]; male Ces2^–/– mice) is reported as 0.42 ± 0.15 ng/mL. The Tmax ([1]; male Ces2^–/– mice) was 3.7 ± 0.8 h, the AUC0-4h ([1]; male Ces2^–/–A mice) was 3.7 ± 2.2 ng·h/mL and the “AUC0-4h ratio (× 10^−3) (deacetylvinorelbine/vinorelbine)” value ([1]; male Ces2^–/–A mice) was 6.3 ± 7.8 × 10^−3. The Cmax ([1]; male Ces2^–/–A mice) was 1.5 ± 1.1 ng/mL, the Tmax ([1]; male Ces2^–/–A mice) was 2.6 ± 1.0 h and the AUC0-4h ([1]; male Ces2^–/–V mice) was 3.3 ± 2.3 ng·h/mL. The “AUC0-4h ratio (× 10^−3) (deacetylvinorelbine/vinorelbine)” value ([1]; male Ces2^–/–V mice) was 5.3 ± 1.9 × 10^−3, the Cmax ([1]; male Ces2^–/–V mice) was 1.4 ± 1.2 ng/mL and the Tmax ([1]; male Ces2^–/–V mice) was 2.7 ± 1.0 h. The “plasma AUC0-4h, fold increase in Ces2^–/–A compared with Ces2^–/– mice” value ([1]; male mice) was 3.7 fold, the “plasma AUC0-4h, fold increase in Ces2^–/–V compared with Ces2^–/– mice” value ([1]; male mice) was 3.3 fold and the AUC0-4h ([1]; male wild-type mice) was 238 ± 112 ng·h/mL. For the same compound, the “AUC0-4h ratio (× 10^−3) (deacetylvinorelbine/vinorelbine)” value ([1]; male wild-type mice) was 640 ± 170 × 10^−3, the Cmax ([1]; male wild-type mice) was 91 ± 44 ng/mL and the Tmax ([1]; male wild-type mice) was 1.7 ± 0.7 h. For the same compound, the “plasma Cmax” value [2] was 9.1 ± 3.3 ng/mL, the “CSI (small intestine tissue concentration)” value ([3]; male Ces2^–/– mice) was 87 ± 15 ng/g and the “CSIC (small intestine contents concentration)” value (“CSIC” for short) ([3]; male Ces2^–/– mice) was 291 ± 180 ng/g. The “Ccolon (colon concentration)” value ([3]; male Ces2^–/– mice) was 58 ± 45 ng/g, the “Cliver (liver concentration)” value ([3]; male Ces2^–/– mice) was 487 ± 127 ng/g and the “Colon Ratio (x 10^-3) (deacetylvinorelbine /vinorelbine)” value (“Colon Ratio” for short) ([3]; male Ces2^–/– mice) was 9.4 ± 3.8 x 10^-3. The “Liver Ratio (x 10^-3) (deacetylvinorelbine /vinorelbine)” value (“Liver Ratio” below) ([3]; male Ces2^–/– mice) was 21 ± 1.9 x 10^-3, the “Small intestine Ratio (x 10^-3) (deacetylvinorelbine /vinorelbine)” value (shortened to “Small intestine Ratio”) ([3]; male Ces2^–/– mice) was 15 ± 1.2 x 10^-3 and the “Small intestine contents Ratio (x 10^-3) (deacetylvinorelbine /vinorelbine)” value (shortened to “Small intestine contents Ratio”) ([3]; male Ces2^–/– mice) was 7.4 ± 1.0 x 10^-3. For the same compound, the liver deacetylvinorelbine-to-vinorelbine ratio ([3]; male Ces2^–/– mice) was 0.021 ± 0.002, the “small intestine conversion ratio (deacetylvinorelbine-to-vinorelbine)” value (“small intestine conversion ratio” below) ([3]; male Ces2^–/– mice) was 0.015 ± 0.001 and the “CSI (small intestine tissue concentration)” value ([3]; male Ces2^–/–A mice) was 79 ± 13 ng/g. For the same compound, the “CSIC” value ([3]; male Ces2^–/–A mice) was 400 ± 315 ng/g, the “Ccolon (colon concentration)” value ([3]; male Ces2^–/–A mice) was 42 ± 43 ng/g and the “Cliver (liver concentration)” value ([3]; male Ces2^–/–A mice) was 584 ± 157 ng/g. For the same compound, the “Colon Ratio” value ([3]; male Ces2^–/–A mice) was 7.0 ± 3.7 x 10^-3, the “Liver Ratio” value ([3]; male Ces2^–/–A mice) was 25± 7.0 x 10^-3 and the “Small intestine Ratio” value ([3]; male Ces2^–/–A mice) was 14 ± 1.0 x 10^-3. The “Small intestine contents Ratio” value ([3]; male Ces2^–/–A mice) was 8.1 ± 1.1 x 10^-3, the liver deacetylvinorelbine-to-vinorelbine ratio ([3]; male Ces2^–/–A mice) was 0.025 ± 0.0070 and the “small intestine conversion ratio” value ([3]; male Ces2^–/–A mice) was 0.014 ± 0.001. The “CSI (small intestine tissue concentration)” value ([3]; male Ces2^–/–V mice) was 134 ± 47***^ ng/g, the “CSIC” value ([3]; male Ces2^–/–V mice) was 511 ± 322 ng/g and the “Ccolon (colon concentration)” value ([3]; male Ces2^–/–V mice) was 120 ± 45***^ ng/g. The “Cliver (liver concentration)” value ([3]; male Ces2^–/–V mice) was 513 ± 61 ng/g, the “Colon Ratio” value ([3]; male Ces2^–/–V mice) was 17 ± 4.7***^^ x 10^-3 and the “Liver Ratio” value ([3]; male Ces2^–/–V mice) was 22 ± 6.6 x 10^-3. For the same compound, the “Small intestine Ratio” value ([3]; male Ces2^–/–V mice) was 17 ± 2.2***^^ x 10^-3, the “Small intestine contents Ratio” value ([3]; male Ces2^–/–V mice) was 10 ± 1.0 x 10^-3 and the liver deacetylvinorelbine-to-vinorelbine ratio ([3]; male Ces2^–/–V mice) was 0.022 ± 0.007. For the same compound, the “small intestine conversion ratio” value ([3]; male Ces2^–/–V mice) was 0.017 ± 0.002, the “CSI (small intestine tissue concentration)” value ([3]; male wild-type mice) was 2214 ± 605 ng/g and the “CSIC” value ([3]; male wild-type mice) was 27594 ± 13421 ng/g. For the same compound, the “Ccolon (colon concentration)” value ([3]; male wild-type mice) was 780 ± 199 ng/g, the “Cliver (liver concentration)” value ([3]; male wild-type mice) was 26773 ± 10517 ng/g and the “Colon Ratio” value ([3]; male wild-type mice) was 340 ± 70 x 10^-3. The “Liver Ratio” value ([3]; male wild-type mice) was 2500 ± 1300 x 10^-3, the “Small intestine Ratio” value ([3]; male wild-type mice) was 630 ± 46 x 10^-3 and the “Small intestine contents Ratio” value ([3]; male wild-type mice) was 1000 ± 270 x 10^-3. The liver deacetylvinorelbine-to-vinorelbine ratio ([3]; male wild-type mice) was 2.5 ± 1.3 and the “small intestine conversion ratio” value ([3]; male wild-type mice) was 0.63 ± 0.05.
